Assay [1] deals with T1, BRD4-1 (binding domain 1 of BRD4) (Homo sapiens, UniProt O60885).
T1 construct: purchased Reaction Biology Corp., Malvern, Pa; (contract assay)
Description: BRD4 binding domain 1 inhibition (Reaction Biology Corp.). The settings on record: 10-point curve; read-out: Target IC50 BRD4-1. How it is done: (§1) The BTK, PI3K, and/or bromodomain inhibitory activity of a compound of the invention can be determined by methods known to the skilled artisan, or by procuring relevant analysis by a commercial vendor offering such services. […] In vivo, PI3K inhibition can be determined from target tissue biopsies by standard tissue processing in which cells are disrupted and Western Blot analysis is performed to determine the presence or absence of pAKT (substrate of PI3K) relative to a control sample. PI3K inhibition assays and BTK inhibition assays are known in the art and can be procured commercially through vendors such as Reaction Biology (Malvern, Pa.). The activity of a compound of the invention as an inhibitor of a bromodomain-containing protein, such as a BET protein, including BRD2, BRD3, BRD4, and/or BRDT, or an isoform or mutant thereof, may be determined in vitro, in vivo, or in a cell line. In vitro assays include assays that determine inhibition of bromodomain-containing proteins. Alternatively, inhibitor binding may be determined by running a competition experiment where a provided compound is incubated with a bromodomain-containing protein, such as a BET protein bound to known ligands, labeled or unlabeled. In vitro bromodomain inhibition assays can be performed using Alpha Screen Technology (Perkin Elmer Life and Analytical Sciences, Shelton, Conn.). In vivo bromodomain inhibition can be determined indirectly by evaluating the amount of a protein whose gene transcription is influenced or controlled by the bromodomain protein, for example, MYCN protein transcription is controlled by BRD4 (J. E. Delmore et al., Cell 2011, 146, 904-917; A. Puissant, Cancer Discov. 2013, 3, 308-323).
(§2) Compounds of the invention were analyzed for their ability to inhibit target proteins in vitro. PI3K alpha, gamma, and delta inhibition activity was determined by Thermo Fisher Scientific-Biosciences Life Sciences Solutions, Madison, Wis. The bromodomain protein inhibition (binding domain 1 and 2 of BRD4) was determined at Reaction Biology Corp., Malvern, Pa. BTK inhibition was performed by Reaction Biology Corp., Malvern, Pa.
(§3) Additional information regarding the testing procedures is available at each company's website on the internet. The IC50 data was calculated from a 10-point curve by the vendor and is compiled in ranges in the Table 6 below.

In assay [2] the target is T2, PI3K α (Homo sapiens, UniProt P42336).
T2 construct: purchased Thermo Fisher Scientific-Biosciences Life Sciences Solutions, Madison, Wis; (contract assay)
T2 sequence (P42336 whole entry): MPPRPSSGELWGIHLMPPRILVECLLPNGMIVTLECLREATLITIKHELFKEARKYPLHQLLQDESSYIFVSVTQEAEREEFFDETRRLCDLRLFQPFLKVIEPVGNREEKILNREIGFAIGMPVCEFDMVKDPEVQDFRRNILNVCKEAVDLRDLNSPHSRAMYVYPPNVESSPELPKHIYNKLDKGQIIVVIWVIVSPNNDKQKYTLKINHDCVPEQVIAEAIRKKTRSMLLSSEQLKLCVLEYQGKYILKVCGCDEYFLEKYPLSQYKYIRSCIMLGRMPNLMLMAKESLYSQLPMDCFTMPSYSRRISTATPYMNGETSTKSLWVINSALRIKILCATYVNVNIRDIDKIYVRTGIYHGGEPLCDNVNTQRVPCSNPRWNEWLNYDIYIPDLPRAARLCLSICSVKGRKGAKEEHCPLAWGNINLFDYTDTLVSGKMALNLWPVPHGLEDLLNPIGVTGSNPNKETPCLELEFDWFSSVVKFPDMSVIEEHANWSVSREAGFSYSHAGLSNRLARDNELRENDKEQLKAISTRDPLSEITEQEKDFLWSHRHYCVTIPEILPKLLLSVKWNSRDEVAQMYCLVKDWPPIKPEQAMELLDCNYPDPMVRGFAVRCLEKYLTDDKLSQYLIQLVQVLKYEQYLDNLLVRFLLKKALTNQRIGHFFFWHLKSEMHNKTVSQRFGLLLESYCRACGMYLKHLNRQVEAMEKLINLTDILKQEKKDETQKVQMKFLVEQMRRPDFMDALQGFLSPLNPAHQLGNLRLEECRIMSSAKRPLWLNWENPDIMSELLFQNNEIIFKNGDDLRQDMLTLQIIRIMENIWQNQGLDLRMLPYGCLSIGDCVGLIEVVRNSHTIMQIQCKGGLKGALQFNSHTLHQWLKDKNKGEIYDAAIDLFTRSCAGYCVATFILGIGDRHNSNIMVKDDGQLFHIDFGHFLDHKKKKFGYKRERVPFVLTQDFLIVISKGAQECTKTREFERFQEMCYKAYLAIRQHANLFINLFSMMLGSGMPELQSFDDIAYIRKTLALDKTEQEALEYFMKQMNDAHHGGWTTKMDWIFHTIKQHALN
T2 sequence (P27986 whole entry partner): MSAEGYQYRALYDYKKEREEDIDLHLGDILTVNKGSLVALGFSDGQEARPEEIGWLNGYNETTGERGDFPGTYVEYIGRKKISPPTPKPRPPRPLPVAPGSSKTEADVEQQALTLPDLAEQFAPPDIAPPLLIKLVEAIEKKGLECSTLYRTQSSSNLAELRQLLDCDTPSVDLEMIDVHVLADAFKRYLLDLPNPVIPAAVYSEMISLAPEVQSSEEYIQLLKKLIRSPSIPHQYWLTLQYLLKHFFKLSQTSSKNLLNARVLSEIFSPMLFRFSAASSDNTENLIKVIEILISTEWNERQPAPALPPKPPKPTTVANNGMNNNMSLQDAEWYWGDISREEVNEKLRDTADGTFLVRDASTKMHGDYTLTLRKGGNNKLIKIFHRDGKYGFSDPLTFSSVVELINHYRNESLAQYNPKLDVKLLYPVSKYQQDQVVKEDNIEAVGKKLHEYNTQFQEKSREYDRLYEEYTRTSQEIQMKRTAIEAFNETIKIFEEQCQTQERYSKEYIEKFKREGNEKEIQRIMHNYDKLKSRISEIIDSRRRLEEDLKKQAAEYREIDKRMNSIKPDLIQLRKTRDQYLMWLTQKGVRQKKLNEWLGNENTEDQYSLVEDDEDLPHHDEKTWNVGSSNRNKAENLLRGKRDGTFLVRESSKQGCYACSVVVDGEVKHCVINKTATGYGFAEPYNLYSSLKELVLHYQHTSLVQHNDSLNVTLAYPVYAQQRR
Description: PI3K alpha inhibition (Thermo Fisher Scientific). The assay is classed as biochemical. The settings on record: 10-point curve; read-out: Target IC50 PI3K α. The protocol:
as §1, §2, §3

The target in assay [3] is T3, PI3K δ (Homo sapiens, UniProt O00329).
T3 construct: purchased Thermo Fisher Scientific-Biosciences Life Sciences Solutions, Madison, Wis; (contract assay)
T3 sequence (O00329 whole entry): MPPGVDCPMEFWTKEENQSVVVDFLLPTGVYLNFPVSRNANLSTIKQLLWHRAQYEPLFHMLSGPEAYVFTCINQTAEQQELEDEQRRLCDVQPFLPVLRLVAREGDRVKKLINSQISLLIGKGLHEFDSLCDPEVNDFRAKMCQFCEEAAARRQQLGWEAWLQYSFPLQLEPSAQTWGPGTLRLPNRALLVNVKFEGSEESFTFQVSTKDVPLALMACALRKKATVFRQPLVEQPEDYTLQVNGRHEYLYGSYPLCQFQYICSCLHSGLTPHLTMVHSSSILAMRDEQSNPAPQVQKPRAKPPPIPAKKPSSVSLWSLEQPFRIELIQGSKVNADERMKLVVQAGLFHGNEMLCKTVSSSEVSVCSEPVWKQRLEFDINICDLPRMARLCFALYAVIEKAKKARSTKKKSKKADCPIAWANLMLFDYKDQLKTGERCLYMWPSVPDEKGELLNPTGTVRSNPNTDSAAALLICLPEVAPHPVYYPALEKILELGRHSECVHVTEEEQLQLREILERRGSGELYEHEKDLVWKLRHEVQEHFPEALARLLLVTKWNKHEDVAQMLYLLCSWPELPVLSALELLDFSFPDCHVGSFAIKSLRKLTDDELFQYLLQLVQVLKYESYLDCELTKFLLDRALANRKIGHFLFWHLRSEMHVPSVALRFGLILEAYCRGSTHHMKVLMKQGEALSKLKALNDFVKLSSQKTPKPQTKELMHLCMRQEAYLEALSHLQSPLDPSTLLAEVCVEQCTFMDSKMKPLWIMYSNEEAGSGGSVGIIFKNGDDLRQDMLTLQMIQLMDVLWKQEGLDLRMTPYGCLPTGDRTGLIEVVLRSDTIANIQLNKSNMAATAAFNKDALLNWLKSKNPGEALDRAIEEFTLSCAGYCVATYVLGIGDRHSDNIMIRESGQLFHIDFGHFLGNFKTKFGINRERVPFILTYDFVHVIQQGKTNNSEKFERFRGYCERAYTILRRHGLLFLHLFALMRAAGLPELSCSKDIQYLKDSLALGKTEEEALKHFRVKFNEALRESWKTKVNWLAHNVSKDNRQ
T3 sequence (P27986 whole entry partner): as the sequence (P27986 whole entry partner) above
Kind of assay: PI3K delta inhibition (Thermo Fisher Scientific). The assay is classed as biochemical. The settings on record: 10-point curve; read-out: Target IC50 PI3K δ. The protocol:
as §1, §2, §3

Assay [4] has as its target T4, BTK (WT) (Homo sapiens, UniProt Q06187).
T4 construct: purchased Reaction Biology Corp., Malvern, Pa; (contract assay)
Kind of assay: native BTK inhibition (Reaction Biology Corp.). The class given is biochemical. As to conditions: 10-point curve; read-out: Target IC50 BTK (WT). How it is done:
as §2, §3

Assay [5] addresses T5, BTK (C481S) (Homo sapiens, UniProt Q06187, C481S).
T5 construct: purchased Reaction Biology Corp., Malvern, Pa; (contract assay)
Kind of assay: BTK cysteine mutant C481S inhibition (Reaction Biology Corp.). The settings on record: for Ratio C481S/WT: ratio of the BTK IC50 values, C481S over wild-type. The class given is biochemical. The protocol:
as §2, §3

Assay [6] concerns JeKo-1 cells. Kind of assay: Cell viability (Celltiter-Glo), JeKo-1. The assay is classed as cell-based. The settings on record: Homo sapiens, 48 hours. How it is done: (§4) The results of this experiment are shown in FIGS. 1A-1C, and in Table 7 below. Human mantle cell lymphoma cell lines were grown in 96 well plates with 5000 cells per well in RPMI 1640 media supplemented with 10% fetal bovine serum. Cells were treated for 48 hours with a concentration range of each compound from 50 nM to 50 uM. Cell viability a measure of viable cell numbers was determined using a Celltiter-Glo^R reagent for each concentration in order to construct an IC50 curve for each compound in each cell line.

Assay [7] relates to Mino cells. Kind of assay: Cell viability (Celltiter-Glo), Mino. The class given is cell-based. The settings on record: Homo sapiens, 48 hours. The protocol:
as §4
In general terms: In ATP-based viability assays light output follows the ATP content of the culture.

The test system of assay [8] is Granta519 cells. Description: Cell viability (Celltiter-Glo), Granta519. The assay is classed as cell-based. The settings on record: Homo sapiens, Granta-519, 48 hours. How it is done:
as §4

Assay [9] deals with Human mantle cell lymphoma cell lines. Kind of assay: Cell viability, mantle cell lymphoma cell lines (overall conclusion). The class given is cell-based. As to conditions: in vitro, 48 hours. The protocol:
as §4

The subject of assay [10] is pBTK(Y223) in JeKo and Mino cells. Description: Western blot, phosphorylation of BTK at Tyr223 in anti-IgM stimulated cells. The assay is classed as cell-based, human. As to conditions: for Suppression of pBTK (Tyr223): anti-IgM stimulated JeKo and Mino cells, FIGS. 2A-2D. A general note: In western blotting, separated proteins are transferred to a membrane and probed.
In assay [11] the test system is pAKT(S473) in JeKo and Mino cells. Description: Western blot, phosphorylation of AKT at Ser 473 in anti-IgM stimulated cells. The assay is classed as cell-based, human. The settings on record: for Suppression of pAKT (Ser 473): anti-IgM stimulated JeKo and Mino cells, FIGS. 2A-2D. The protocol: Phosphorylation of BTK at Tyr223 and AKT at Ser 473 were determined by Western blot analysis. The results are shown in FIGS. 2A-2B (JeKo cells) and FIGS. 2C-2D (Mino cells). Blots were reprobed for total BTK, AKT, and β-actin.

The subject of assay [12] is pBTK in JeKo cells. Kind of assay: Washout Western blot for pBTK in IgM-stimulated JeKo cells. The class given is cell-based, human. The settings on record: 5 μM or 1 μM for 3 hours, washed with PBS three times, 4 hours recovery.
Assay [13] relates to pAKT in JeKo cells. Description: Washout Western blot for pAKT in IgM-stimulated JeKo cells. The assay is classed as cell-based, human. As to conditions: 5 μM or 1 μM for 3 hours, washed with PBS three times, 4 hours recovery.
Assay [14] concerns the target T6, BRD4-2 (binding domain 2 of BRD4) (Homo sapiens, UniProt O60885).
T6 construct: purchased Reaction Biology Corp., Malvern, Pa; (contract assay)
Kind of assay: BRD4 binding domain 2 inhibition (Reaction Biology Corp.). The settings on record: 10-point curve; read-out: Target IC50 BRD4-2. How it is done:
as §1, §2, §3

The target in assay [15] is T7, PI3K γ (Homo sapiens, UniProt P48736).
T7 construct: purchased Thermo Fisher Scientific-Biosciences Life Sciences Solutions, Madison, Wis; (contract assay)
T7 sequence (P48736 whole entry): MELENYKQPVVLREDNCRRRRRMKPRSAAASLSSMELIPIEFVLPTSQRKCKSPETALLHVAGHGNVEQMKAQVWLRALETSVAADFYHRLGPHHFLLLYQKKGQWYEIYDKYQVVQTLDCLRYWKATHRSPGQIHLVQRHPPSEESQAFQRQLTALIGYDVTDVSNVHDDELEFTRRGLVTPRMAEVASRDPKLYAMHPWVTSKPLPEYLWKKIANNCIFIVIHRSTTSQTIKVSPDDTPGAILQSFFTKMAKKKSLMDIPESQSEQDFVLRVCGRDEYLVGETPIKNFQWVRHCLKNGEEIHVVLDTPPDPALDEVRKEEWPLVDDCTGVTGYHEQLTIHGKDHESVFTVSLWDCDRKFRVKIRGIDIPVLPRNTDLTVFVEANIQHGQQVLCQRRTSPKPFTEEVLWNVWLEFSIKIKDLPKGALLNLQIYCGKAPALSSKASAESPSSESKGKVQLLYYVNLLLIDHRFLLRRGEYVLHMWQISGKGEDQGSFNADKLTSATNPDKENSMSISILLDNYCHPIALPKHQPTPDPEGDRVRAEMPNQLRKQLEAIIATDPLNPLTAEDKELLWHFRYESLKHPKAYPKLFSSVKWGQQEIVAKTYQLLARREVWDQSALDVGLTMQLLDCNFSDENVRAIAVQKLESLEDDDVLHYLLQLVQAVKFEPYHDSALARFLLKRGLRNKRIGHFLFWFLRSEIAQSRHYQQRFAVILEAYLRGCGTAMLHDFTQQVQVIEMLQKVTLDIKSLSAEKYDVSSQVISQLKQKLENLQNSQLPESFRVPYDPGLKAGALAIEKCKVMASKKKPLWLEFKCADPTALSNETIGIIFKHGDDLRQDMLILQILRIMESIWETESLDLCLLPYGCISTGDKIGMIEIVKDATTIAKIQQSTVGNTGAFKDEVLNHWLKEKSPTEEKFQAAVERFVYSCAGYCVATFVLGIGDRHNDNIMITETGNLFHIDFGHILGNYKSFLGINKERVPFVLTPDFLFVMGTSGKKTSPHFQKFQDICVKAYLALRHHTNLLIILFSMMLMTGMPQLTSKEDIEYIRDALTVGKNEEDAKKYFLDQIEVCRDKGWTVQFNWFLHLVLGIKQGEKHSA
Description: PI3K gamma inhibition (Thermo Fisher Scientific). The assay is classed as biochemical. The settings on record: 10-point curve; read-out: Target IC50 PI3K γ. The protocol:
as §1, §2, §3

Assay [16] deals with JeKo-1 cells. Description: Percentage cells in apoptosis, JeKo-1. The assay is classed as cell-based, human. The text has this:
(§5) Additionally apoptosis data was obtained in both JeKo and Mino cells for compound 7.

In assay [17] the test system is Mino cells. Kind of assay: Percentage cells in apoptosis, Mino. As to conditions: 24-hour. The class given is cell-based, human.
Excerpt: as §5

Assay [18] deals with JeKo and Mino cells. Kind of assay: Apoptosis, both mantle cell lymphoma lines (overall statement). The class given is cell-based, human.
Excerpt: as §5

Assay [19] concerns pBTK(Y223) in JeKo-BTK-WT and JeKo-BTK-C481S cells. Kind of assay: Western blot for pBTK(Y223) in JeKo-BTK wild-type and JeKo-BTK-C481S cells. The class given is cell-based, human. The settings on record: 1 hour, different concentrations, FIGS. 6A and 6B.
The test system of assay [20] is pAKT(S473) in JeKo-BTK-WT and JeKo-BTK-C481S cells. Description: Western blot for pAKT in JeKo-BTK wild-type and JeKo-BTK-C481S cells. The assay is classed as cell-based, human. As to conditions: 1 hour, different concentrations, FIGS. 6A and 6B.
Assay [21] concerns pBTK in JeKo-BTK-C481S cells. Description: Washout immunoblot for pBTK in JeKo-BTK-C481S cells. The assay is classed as cell-based, human. As to conditions: 3 hours, washed with PBS, 4 hours recovery, FIG. 6C.
Assay [22] has as its target T8, fluorophore-tagged BRD4 fusion protein (Homo sapiens, UniProt O60885).
T8 construct: expressed in transfected cells; host or cells: JeKo cells
Description: Chromatin-release assay in JeKo cells. The assay is classed as cell-based. As to conditions: 1 μM, confocal microscopy. The protocol: A chromatin-release assay was performed on JeKo cells treated with 1 μM Compound 7.

Assay [23] has as its system JeKo cells. Kind of assay: Cell cycle analysis in JeKo cells. The settings on record: MCL cells, 5 μM, FIG. 4. The assay is classed as cell-based, human.
The mark [24] stands for this setting: JeKo cells stimulated with F(ab′) and anti-human IgM, various concentrations, FIG. 3B.

T5 sequence (Q06187 whole entry C481S): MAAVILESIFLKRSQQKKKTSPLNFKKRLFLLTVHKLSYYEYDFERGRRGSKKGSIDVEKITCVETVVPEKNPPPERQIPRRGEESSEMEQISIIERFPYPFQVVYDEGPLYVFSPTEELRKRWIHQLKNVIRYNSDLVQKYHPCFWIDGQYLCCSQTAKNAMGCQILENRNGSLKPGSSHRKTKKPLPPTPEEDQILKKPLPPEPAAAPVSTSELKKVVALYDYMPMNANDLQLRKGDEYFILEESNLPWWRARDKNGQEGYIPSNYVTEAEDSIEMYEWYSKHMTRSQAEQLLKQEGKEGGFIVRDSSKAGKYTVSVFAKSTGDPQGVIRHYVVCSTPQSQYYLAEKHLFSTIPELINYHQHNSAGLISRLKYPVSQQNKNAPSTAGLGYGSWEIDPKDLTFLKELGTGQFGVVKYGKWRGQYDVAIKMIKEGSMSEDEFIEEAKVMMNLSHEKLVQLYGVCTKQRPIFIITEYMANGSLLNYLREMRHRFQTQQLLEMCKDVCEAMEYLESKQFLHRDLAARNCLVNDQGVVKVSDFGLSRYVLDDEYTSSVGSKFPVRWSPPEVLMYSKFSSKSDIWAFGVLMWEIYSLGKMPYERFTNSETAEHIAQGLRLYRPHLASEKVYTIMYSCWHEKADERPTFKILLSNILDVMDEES
T4 sequence (Q06187 whole entry): as the sequence (Q06187 whole entry C481S) above, with S481C counted along it

`C=CC(=O)Nc1cccc(-c2csc3c(=O)cc(N4CCOCC4)oc23)c1` [Compound 1, 1-[m-(5-Morpholino-7-oxo-4-oxa-1-thia-3-indenyl)phenylamino]-2-propen-1-one]: the IC50 (as a rule, the concentration needed to halve the response being measured) is less than 1 µM in [1]; less than 1 µM in [2]; less than 1 µM in assay [3]; less than 1 µM in assay [4]; 1 to 10 µM in assay [6]; less than 1 µM in assay [7]. The compound further registered an IC50 in assay [8] of 1 to 10 µM. Moreover, the “Ratio C481S/WT” value in [5] is greater than 81. The “Potency in reducing mantle cell lymphoma viability as compared to Ibrutinib” value in [9] was “markedly more potent”. In addition, the “Suppression of pBTK(Y223)” value in assay [10] (setting [24]) is on record as “suppressed”. In addition, the “Suppression of pBTK (Tyr223)” value in assay [10] is given as “block the catalytic activity”. Besides, the “Suppression of pAKT” value in assay [11] (setting [24]) is “suppressed”. In addition, in [11], the “Suppression of pAKT (Ser 473)” value is listed as “block the catalytic activity”. For the same compound, the “pBTK inhibition after washing” value in assay [12] is “not diminished by washing”. Besides, the pAKT after washing result in [13] was “restored after washing”.
Regarding `C=CC(=O)N1CCOc2ccc(-c3csc4c(=O)cc(N5CCOCC5)oc34)cc21` [Compound 7, 1-[7-(5-Morpholino-7-oxo-4-oxa-1-thia-3-indenyl)-4-oxa-1-aza-2,3-dihydro-1H-naphth-1-yl]-2-propen-1-one], the IC50 in assay [1], in assay [14], in assay [2], in [3], in assay [15] and in [4] was less than 1 µM in each case. Besides, the IC50 was 10 to 30 µM in [5] (10-point curve, read-out: Target IC50 BTK (C481S)); less than 1 µM in assay [6]; less than 1 µM in assay [7]; 1 to 10 µM in assay [8]. Moreover, the “Ratio C481S/WT” value in [5] is on record as 728. Moreover, the “Percentage cells in apoptosis” value is “+ (less than 5%)” in [16] (JeKo-1, 24-hour, Early); “+++ (between 10% and 30%)” in assay [16] (JeKo-1, 24-hour, Late); “+++ (between 10% and 30%)” in assay [16] (JeKo-1, 24-hour, Total); “+++ (between 10% and 30%)” in assay [16] (JeKo-1, 48-hour, Early); “+++ (between 10% and 30%)” in [16] (JeKo-1, 48-hour, Late); “++++ (between 30% and 50%)” in assay [16] (JeKo-1, 48-hour, Total). Moreover, the “Percentage cells in apoptosis” value in assay [17] (Early) is “+++ (between 10% and 30%)”; in assay [17] (Late), “++ (between 5% and 10%)”; in assay [17] (Total), “+++ (between 10% and 30%)”. For the same compound, in assay [9], the “Potency in reducing mantle cell lymphoma viability as compared to Ibrutinib” value is recorded as “markedly more potent”. Also, the “Apoptosis compared with exposure to Ibrutinib” value in assay [18] is listed as “much more apoptosis”. Besides, the “Suppression of pBTK (Tyr223)” value in assay [10] was “block the catalytic activity”. In assay [11], the “Suppression of pAKT (Ser 473)” value is given as “block the catalytic activity”. Besides, the “Inhibition of pBTK” value in [19] is given as “inhibit pBTK”. Moreover, the “Inhibition of pAKT” value in [20] was “inhibits pAKT and in a dose dependent manner”. Further, the “pBTK suppression activity upon washout” value in [21] is on record as “irreversible”. The “Release of BRD4 from chromatin” value in [22] was “released a fluorophore-tagged BRD4 fusion protein from chromatin”. The Cell cycle effect entry in assay [23] is on record as “Cell Cycle Arrest”.

(Values after patent US20210300939A1, “Single Molecule Compounds Providing Multi-Target Inhibition of BTK and Other Proteins and Methods of Use Thereof” (SignalRx Pharmaceuticals, Inc., priority 2018, published 2021).)
